Reference: US8802597B2, “Herbicidal pyrimidines” (E I du Pont de Nemours and Company, priority 2003, dated 2014)

Tests used:
Assay in all cases: Test C pre/postemergence
Assay type in all cases: in vivo
[1] = tested on: Surinam grass (Brachiaria decumbens); conditions: for Surinam Grass plant response rating: scale 0 to 100 (0 no effect, 100 complete control)
Summary of the method: (§1)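 Rating scale 0–100: 0 means no effect, 100 complete control; taken visually 12 to 14 days post-treatment versus controls. Pre- and postemergence greenhouse applications, postemergence at 1- to 4-leaf stage, non-phytotoxic solvent with surfactant as carrier.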

[2] = tested on: bermudagrass (Cynodon dactylon); conditions: for Bermudagrass plant response rating: scale 0 to 100 (0 no effect, 100 complete control)
Summary of the method: as §1

[3] = tested on: cocklebur (Xanthium strumarium); conditions: for Cocklebur plant response rating: scale 0 to 100 (0 no effect, 100 complete control)
Summary of the method: as §1

[4] = tested on: common (oilseed) sunflower (Helianthus annuus); conditions: Preemergence
Summary of the method: as §1

[5] = tested on: common ragweed (Ambrosia elatior); conditions: for Ragweed plant response rating: scale 0 to 100 (0 no effect, 100 complete control)
Summary of the method: as §1

corn (Zea mays) = conditions: for Corn plant response rating: scale 0 to 100 (0 no effect, 100 complete control)
Summary of the method: as §1

[6] = tested on: eastern black nightshade (Solanum ptycanthum); conditions: Preemergence
Summary of the method: as §1

[7] = tested on: johnsongrass (Sorghum halepense); conditions: for Johnsongrass plant response rating: scale 0 to 100 (0 no effect, 100 complete control)
Summary of the method: as §1

kochia (Kochia scoparia) = conditions: for Kochia plant response rating: scale 0 to 100 (0 no effect, 100 complete control)
Summary of the method: as §1

[8] = tested on: morningglory (Ipomoea coccinea); conditions: for Morningglory plant response rating: scale 0 to 100 (0 no effect, 100 complete control)
Summary of the method: as §1

[9] = tested on: pigweed (Amaranthus retroflexus); conditions: for Pigweed plant response rating: scale 0 to 100 (0 no effect, 100 complete control)
Summary of the method: as §1

[10] = tested on: woolly cupgrass (Eriochloa villosa); conditions: for Cupgrass, Woolly plant response rating: scale 0 to 100 (0 no effect, 100 complete control)
Summary of the method: as §1

[11] = Postemergence, 250 g ai/ha, scale 0 to 100
[12] = Postemergence, 500 g ai/ha, scale 0 to 100
[13] = Preemergence, 125 g ai/ha, scale 0 to 100
[14] = Preemergence, 250 g ai/ha, scale 0 to 100
[15] = Preemergence, 500 g ai/ha, scale 0 to 100
[16] = Preemergence, 62 g ai/ha, scale 0 to 100, 0 no effect, 100 complete control
[17] = 62 g ai/ha, scale 0 to 100, 0 no effect, 100 complete control

COC(=O)CNc1nc(C2CC2)nc(C(=O)OC)c1Br [Compound 10]
Surinam Grass plant response rating ([1]; Postemergence, 62 g ai/ha): 0
Surinam Grass plant response rating ([1]; Postemergence, 125 g ai/ha): 0
Plant response rating, Surinam Grass [1, 11]: 0
Plant response rating, Surinam Grass [1, 12]: 0
Plant response rating, Surinam Grass [1, 13]: 0
Plant response rating, Surinam Grass [1, 14]: 0
Plant response rating, Surinam Grass [1, 15]: 0
Bermudagrass plant response rating ([2]; Postemergence, 62 g ai/ha): 0
Plant response rating, Bermudagrass [2, 11]: 0
Plant response rating, Bermudagrass [2, 12]: 0
Plant response rating, Bermudagrass ([2]; Postemergence, 125 g ai/ha, scale 0 to 100): 0
Plant response rating, Bermudagrass [2, 16]: 0
Plant response rating, Bermudagrass [2, 13]: 0
Plant response rating, Bermudagrass [2, 14]: 0
Plant response rating, Bermudagrass [2, 15]: 0
Cocklebur plant response rating ([3]; Postemergence, 62 g ai/ha): 0
Cocklebur plant response rating ([3]; Postemergence, 125 g ai/ha): 15
Plant response rating, Cocklebur [3, 11]: 60
Plant response rating, Cocklebur [3, 12]: 75
Plant response rating, Cocklebur [3, 13]: 0
Plant response rating, Cocklebur [3, 14]: 0
Plant response rating, Cocklebur [3, 15]: 100
Plant response rating, Sunflower [4, 17]: 0
Plant response rating, Sunflower ([4]; 125 g ai/ha, scale 0 to 100): 0
Plant response rating, Sunflower ([4]; 250 g ai/ha, scale 0 to 100): 0
Plant response rating, Sunflower ([4]; 500 g ai/ha, scale 0 to 100): 0
Ragweed plant response rating ([5]; Postemergence, 62 g ai/ha): 45
Ragweed plant response rating ([5]; Postemergence, 125 g ai/ha): 65
Plant response rating, Ragweed [5, 11]: 80
Plant response rating, Ragweed [5, 12]: 90
Plant response rating, Ragweed [5, 16]: 0
Plant response rating, Ragweed [5, 13]: 0
Plant response rating, Ragweed [5, 14]: 55
Plant response rating, Ragweed [5, 15]: 85
Corn plant response rating (corn (Zea mays); Postemergence, 62 g ai/ha): 0
Corn plant response rating (corn (Zea mays); Postemergence, 125 g ai/ha): 0
Plant response rating, Corn (corn (Zea mays); [11]): 0
Plant response rating, Corn (corn (Zea mays); [12]): 0
Plant response rating, Corn (corn (Zea mays); [16]): 0
Plant response rating, Corn (corn (Zea mays); [13]): 0
Plant response rating, Corn (corn (Zea mays); [14]): 0
Plant response rating, Corn (corn (Zea mays); [15]): 0
Plant response rating, Nightshade ([6]; 250 g ai/ha, scale 0 to 100): 20
Plant response rating, Nightshade ([6]; 500 g ai/ha, scale 0 to 100): 95
Johnsongrass plant response rating ([7]; Postemergence, 62 g ai/ha): 0
Johnsongrass plant response rating ([7]; Postemergence, 125 g ai/ha): 0
Plant response rating, Johnsongrass [7, 11]: 0
Plant response rating, Johnsongrass [7, 12]: 0
Plant response rating, Johnsongrass [7, 16]: 0
Plant response rating, Johnsongrass [7, 13]: 0
Plant response rating, Johnsongrass [7, 14]: 0
Plant response rating, Johnsongrass [7, 15]: 0
Kochia plant response rating (kochia (Kochia scoparia); Postemergence, 62 g ai/ha): 80
Kochia plant response rating (kochia (Kochia scoparia); Postemergence, 125 g ai/ha): 90
Plant response rating, Kochia (kochia (Kochia scoparia); [11]): 95
Plant response rating, Kochia (kochia (Kochia scoparia); [12]): 100
Plant response rating, Kochia (kochia (Kochia scoparia); [16]): 0
Plant response rating, Kochia (kochia (Kochia scoparia); [13]): 0
Plant response rating, Kochia (kochia (Kochia scoparia); [14]): 45
Plant response rating, Kochia (kochia (Kochia scoparia); [15]): 65
Morningglory plant response rating ([8]; Postemergence, 62 g ai/ha): 70
Morningglory plant response rating ([8]; Postemergence, 125 g ai/ha): 85
Plant response rating, Morningglory [8, 11]: 95
Plant response rating, Morningglory [8, 12]: 95
Plant response rating, Morningglory [8, 16]: 0
Plant response rating, Morningglory [8, 13]: 0
Plant response rating, Morningglory [8, 14]: 0
Plant response rating, Morningglory [8, 15]: 100
Pigweed plant response rating ([9]; Postemergence, 62 g ai/ha): 65
Pigweed plant response rating ([9]; Postemergence, 125 g ai/ha): 80
Plant response rating, Pigweed [9, 11]: 95
Plant response rating, Pigweed [9, 12]: 95
Plant response rating, Pigweed [9, 16]: 20
Plant response rating, Pigweed [9, 13]: 55
Plant response rating, Pigweed [9, 14]: 70
Plant response rating, Pigweed [9, 15]: 85
Cupgrass, Woolly plant response rating ([10]; Postemergence, 62 g ai/ha): 0
Cupgrass, Woolly plant response rating ([10]; Postemergence, 125 g ai/ha): 0
Plant response rating, Cupgrass, Woolly [10, 11]: 0
Plant response rating, Cupgrass, Woolly [10, 12]: 0
Plant response rating, Cupgrass, Woolly [10, 16]: 0
Plant response rating, Cupgrass, Woolly [10, 13]: 0
Plant response rating, Cupgrass, Woolly [10, 14]: 0
Plant response rating, Cupgrass, Woolly [10, 15]: 0

COC(=O)c1nc(C2CC2C)nc(N)c1Br (stereo not shown) [Compound 28]
Surinam Grass plant response rating ([1]; Postemergence, 62 g ai/ha): 0
Surinam Grass plant response rating ([1]; Postemergence, 125 g ai/ha): 0
Plant response rating, Surinam Grass [1, 11]: 0
Plant response rating, Surinam Grass [1, 12]: 0
Plant response rating, Surinam Grass [1, 16]: 0
Plant response rating, Surinam Grass [1, 13]: 0
Plant response rating, Surinam Grass [1, 14]: 0
Plant response rating, Surinam Grass [1, 15]: 0
Bermudagrass plant response rating ([2]; Postemergence, 62 g ai/ha): 0
Bermudagrass plant response rating ([2]; Postemergence, 125 g ai/ha): 0
Plant response rating, Bermudagrass [2, 11]: 0
Plant response rating, Bermudagrass [2, 12]: 0
Plant response rating, Bermudagrass [2, 16]: 0
Plant response rating, Bermudagrass [2, 13]: 20
Plant response rating, Bermudagrass [2, 14]: 30
Plant response rating, Bermudagrass [2, 15]: 35
Cocklebur plant response rating ([3]; Postemergence, 62 g ai/ha): 85
Cocklebur plant response rating ([3]; Postemergence, 125 g ai/ha): 95
Plant response rating, Cocklebur [3, 11]: 95
Plant response rating, Cocklebur [3, 12]: 100
Plant response rating, Cocklebur [3, 16]: 90
Plant response rating, Cocklebur [3, 13]: 95
Plant response rating, Cocklebur [3, 14]: 95
Plant response rating, Cocklebur [3, 15]: 100
Plant response rating, Sunflower [4, 17]: 45
Plant response rating, Sunflower ([4]; 125 g ai/ha, scale 0 to 100): 50
Plant response rating, Sunflower ([4]; 250 g ai/ha, scale 0 to 100): 100
Plant response rating, Sunflower ([4]; 500 g ai/ha, scale 0 to 100): 100
Ragweed plant response rating ([5]; Postemergence, 62 g ai/ha): 65
Ragweed plant response rating ([5]; Postemergence, 125 g ai/ha): 80
Plant response rating, Ragweed [5, 11]: 90
Plant response rating, Ragweed [5, 12]: 95
Plant response rating, Ragweed [5, 16]: 65
Plant response rating, Ragweed [5, 13]: 95
Plant response rating, Ragweed [5, 14]: 100
Plant response rating, Ragweed [5, 15]: 100
Corn plant response rating (corn (Zea mays); Postemergence, 62 g ai/ha): 0
Corn plant response rating (corn (Zea mays); Postemergence, 125 g ai/ha): 0
Plant response rating, Corn (corn (Zea mays); [11]): 0
Plant response rating, Corn (corn (Zea mays); [12]): 0
Plant response rating, Corn (corn (Zea mays); [16]): 0
Plant response rating, Corn (corn (Zea mays); [13]): 0
Plant response rating, Corn (corn (Zea mays); [14]): 0
Plant response rating, Corn (corn (Zea mays); [15]): 0
Plant response rating, Nightshade [6, 17]: 100
Plant response rating, Nightshade ([6]; 125 g ai/ha, scale 0 to 100): 100
Plant response rating, Nightshade ([6]; 250 g ai/ha, scale 0 to 100): 100
Plant response rating, Nightshade ([6]; 500 g ai/ha, scale 0 to 100): 100
Johnsongrass plant response rating ([7]; Postemergence, 62 g ai/ha): 0
Johnsongrass plant response rating ([7]; Postemergence, 125 g ai/ha): 0
Plant response rating, Johnsongrass [7, 11]: 0
Plant response rating, Johnsongrass [7, 12]: 0
Plant response rating, Johnsongrass [7, 14]: 0
Kochia plant response rating (kochia (Kochia scoparia); Postemergence, 62 g ai/ha): 75
Kochia plant response rating (kochia (Kochia scoparia); Postemergence, 125 g ai/ha): 85
Plant response rating, Kochia (kochia (Kochia scoparia); [11]): 95
Plant response rating, Kochia (kochia (Kochia scoparia); [12]): 95
Plant response rating, Kochia (kochia (Kochia scoparia); [16]): 0
Plant response rating, Kochia (kochia (Kochia scoparia); [13]): 80
Plant response rating, Kochia (kochia (Kochia scoparia); [14]): 90
Plant response rating, Kochia (kochia (Kochia scoparia); [15]): 100
Morningglory plant response rating ([8]; Postemergence, 62 g ai/ha): 80
Morningglory plant response rating ([8]; Postemergence, 125 g ai/ha): 95
Plant response rating, Morningglory [8, 11]: 95
Plant response rating, Morningglory [8, 12]: 95
Plant response rating, Morningglory [8, 16]: 100
Plant response rating, Morningglory [8, 13]: 100
Plant response rating, Morningglory [8, 14]: 100
Plant response rating, Morningglory [8, 15]: 100
Pigweed plant response rating ([9]; Postemergence, 62 g ai/ha): 30
Pigweed plant response rating ([9]; Postemergence, 125 g ai/ha): 35
Plant response rating, Pigweed [9, 11]: 60
Plant response rating, Pigweed [9, 12]: 75
Plant response rating, Pigweed [9, 16]: 80
Plant response rating, Pigweed [9, 13]: 95
Plant response rating, Pigweed [9, 14]: 100
Plant response rating, Pigweed [9, 15]: 100
Cupgrass, Woolly plant response rating ([10]; Postemergence, 62 g ai/ha): 0
Cupgrass, Woolly plant response rating ([10]; Postemergence, 125 g ai/ha): 0
Plant response rating, Cupgrass, Woolly [10, 11]: 0
Plant response rating, Cupgrass, Woolly [10, 12]: 0
Plant response rating, Cupgrass, Woolly [10, 16]: 0
Plant response rating, Cupgrass, Woolly [10, 13]: 0
Plant response rating, Cupgrass, Woolly [10, 14]: 0
Plant response rating, Cupgrass, Woolly [10, 15]: 0
